From PubChem BioAssay AID1645868 (Buhrlage Lab, Dana-Farber Cancer Institute and Novartis …, 2021)
The source made the active and inactive calls.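 How the source made its calls: active means maximal percent inhibition of the deubiquitinase OTUD3 of at least 30% across the tested doses; inactive means the rest.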

Molecular target: OTU domain-containing protein 3 (Homo sapiens) (UniProt Q5T2D3)
Assay: Validation of screening hits, potency titration, in vitro enzymatic, OTU domain-containing protein 3 DUB inhibitors (AID 1645868)
Details: purified OTUD3, ubiquitin-rhodamine cleavage fluorescence, 2 h

Chain of OTU domain-containing protein 3 (Homo sapiens) (Q5T2D3 whole entry, looked up, the tested form may be a part): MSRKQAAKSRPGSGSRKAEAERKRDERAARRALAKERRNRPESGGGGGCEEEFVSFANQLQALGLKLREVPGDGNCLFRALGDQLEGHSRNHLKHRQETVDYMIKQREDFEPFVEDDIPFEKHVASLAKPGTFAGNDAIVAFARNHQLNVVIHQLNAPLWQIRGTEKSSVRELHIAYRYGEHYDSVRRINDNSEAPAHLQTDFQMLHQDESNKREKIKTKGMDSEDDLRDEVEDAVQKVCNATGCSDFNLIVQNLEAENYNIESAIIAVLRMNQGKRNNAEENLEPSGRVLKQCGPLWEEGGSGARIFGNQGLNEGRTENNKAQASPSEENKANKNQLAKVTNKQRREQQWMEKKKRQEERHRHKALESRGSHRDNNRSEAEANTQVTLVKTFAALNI

Row | SMILES | IC50
1 | COCC(C)Nc1ncc(-c2cnccn2)c(-c2ccc(C)s2)n1 (stereo not drawn) | > 50 µM (inactive)
2 | Cc1ccc2cc3c(nc2n1)CCN(Cc1ccc(F)cc1)C3 | > 50 µM (inactive)
3 | O=C(Nc1ccc2c(c1)OCCO2)c1ccc(N2CCCC2=O)cc1 | > 50 µM (inactive)
4 | CCCCc1nc2sc3c(SCC(=O)NCc4ccccc4)ncnc3c2c2c1CCC2 | > 50 µM (inactive)

The next lines start with the values.

Row | IC50 | SMILES
5 | > 50 µM (inactive) | O=C(/C=C/c1c(F)cccc1Cl)N1CCc2ccccc2C1
6 | > 50 µM (inactive) | Cn1c(=O)[nH]c(=O)c2c1nc1n(CCc3ccccc3)c(-c3ccccc3)cn21
7 | > 50 µM (inactive) | Cc1ccccc1N1C(=O)/C(=C\c2cccn2C)c2ccccc2C1=O
8 | > 50 µM (inactive) | Cc1ccc(-n2c(=O)c3ccccc3n(Cc3c(F)cccc3Cl)c2=O)cc1
